According to US20240366728A1, “Treatment of Diabetes Mellitus” (Carmot Therapeutics Inc., priority 2023, published 2024):
Where “and” joins values, the source holds several entries; their conditions need not be identical. Identical values can stand only once. Marks after values point to notes of the source that are not given here.

Columns and labels:
DIO C57BL/6J mice = experiment: chronic daily SC dosing in DIO mice (body weight, food, glucose, insulin, tissue weights); format: in vivo, mouse
Method: Body weight and food consumption were measured daily (FIGS. 8 and 9). On the last day of the study mice were fasted for 5 hours. At the end of the fasting period, glucose was measured (FIG. 6) and plasma was collected for insulin analysis. Plasma insulin was measured using an MSD kit. Fasting glucose and insulin were used to calculate the log (HOMA-IR) (FIG. 7).
Body weight was measured daily (FIG. 11). […] On the last day of the study, glucose was measured, and plasma was collected for insulin analysis. Plasma insulin was measured using an MSD kit. Glucose and insulin were used to calculate log (HOMA-IR) (FIG. 10).
DIO mice were acclimated to daily weighing and handling for approximately 1 week until their weight had stabilized. Mice were injected subcutaneously once daily with the indicated dose of peptide, or vehicle, based on current body weight. Injections were performed six hours before the dark cycle started to approximate reaching Tmax when the dark cycle started. Where indicated, 24-hour food consumption studies were performed as described above. Body weight as a percentage of initial weight was calculated daily by dividing the daily body weight by the body weight taken before the first dose of peptide, multiplied by 100%. Blood glucose was determined at study termination, and blood was collected to quantify plasma insulin concentrations. Mice were sedated by isoflurane and euthanized by decapitation. […] Plasma was stored at −80° C. until analysis. Subcutaneous and inguinal fat and the liver were removed and weighed.
DIO and ob/ob mice were acclimated to daily weighing and handling for approximately one week until weight had stabilized. […] Injections were performed six hours before the start of the dark cycle to approximate reaching Tmax when the dark cycle started. […] In both the DIO and ob/ob weight loss studies, body weight as a percentage of initial weight was calculated daily by dividing the daily body weight by the body weight taken before the first dose of peptide, multiplied by 100%. Blood glucose was determined at study termination, and blood was collected to quantify plasma insulin concentrations. Mice were sedated by isoflurane and euthanized by decapitation. […] Subcutaneous and inguinal fat and the liver were removed and weighed.

human GLP-1R = human GLP-1R (Homo sapiens, UniProt P43220); experiment: β-arrestin-2 recruitment (NanoBiT), human GLP-1R; format: cell-based; details: read-out: hGLP-1R β-arrestin-2 % Emax; Table 17
human GLP-1R, sequence (P43220 24-463): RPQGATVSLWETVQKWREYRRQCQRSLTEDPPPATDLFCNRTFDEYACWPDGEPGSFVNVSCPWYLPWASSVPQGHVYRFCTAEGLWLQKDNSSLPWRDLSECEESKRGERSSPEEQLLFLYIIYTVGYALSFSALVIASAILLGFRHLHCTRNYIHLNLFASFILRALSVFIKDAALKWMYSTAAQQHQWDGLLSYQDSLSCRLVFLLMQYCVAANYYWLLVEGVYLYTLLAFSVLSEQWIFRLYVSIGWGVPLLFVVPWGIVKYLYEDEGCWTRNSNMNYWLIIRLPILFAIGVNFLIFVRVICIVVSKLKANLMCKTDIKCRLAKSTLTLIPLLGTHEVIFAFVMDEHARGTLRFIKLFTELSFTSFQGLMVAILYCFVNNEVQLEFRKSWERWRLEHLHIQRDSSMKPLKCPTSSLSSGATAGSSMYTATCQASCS
Method: To measure GLP-1R and GIPR-mediated β-arrestin recruitment, we utilized Promega's NanoBiT® technology or NanoLuc® Binary Technology. The NanoLuc luciferase is split into two subunits, called LgBiT and SmBIT, which are expressed in HEK293 cells as fusion proteins at the C-terminus of GLP-IR or GIPR and the N-terminus of β-arrestin-2. […] The next day, the media was removed and replaced with […] 1:100 dilution of Nano-Glo® Live Cell Substrate in Opti-MEM™ and equilibrated to room temperature for ten minutes. Background luminescence was measured before 10 nL compound was added using an ECHO Acoustic Liquid Handler.
To measure GLP-1R and GIPR-mediated β-arrestin recruitment, Promega's NanoBiT® technology or NanoLuc® Binary Technology were utilized. Both allow for the detection and quantification of protein: protein interactions in live cells (Samms et al., Trends Endocrinol Metab 31:410-21). The NanoLuc luciferase is split into two subunits, called LgBiT and SmBIT, which are expressed in HEK293 cells as fusion proteins at the C-terminus of GLP-1R or GIPR and the N-terminus of β-arrestin-2, respectively. […] Background luminescence was measured before 10 nL compound was added using an ECHO Acoustic Liquid Handler. Luminescence was measured at 1.5-minute intervals for 30 minutes.

[1] = system: participants with obesity and participants with T2DM; experiment: CT-868-003 crossover study: safety; format: in vivo, human; details: for Infections and infestations / Urinary tract infection: Table 24
Source text: Safety assessments of this study included treatment-emergent adverse events (TEAEs), serious adverse events (SAEs), adverse events of special interest (AESI), vital signs, 12-lead electrocardiogram (ECG), clinical lab evaluations, and physical exam.
Safety assessments which occurred throughout the entire study, included monitoring of incidence and severity of AEs, treatment-emergent AEs (TEAEs) and AEs of special interest (AESIs) (e.g., GI events, hypoglycemia), clinical laboratory abnormalities (ECGs, chemistry, hematology, and urinalysis), and changes in vital sign measurements (BP, heart rate, respiratory rate, and aural temperature).
AE terms recorded by the Investigator were coded to system organ class (SOC) and preferred term (PT) using the Medical Dictionary for Regulatory Activities (MedDRA) version 24.0. Severity was collected using the Common Terminology Criteria for AEs (CTCAE) version 5.0 Toxicity Grade. Events with missing severity were summarized as Grade 3. TEAEs summarized by severity counted each participant once for the maximum severity within each SOC and PT within each in-house treatment period and overall. TEAEs marked with a relationship to study treatment as definitely, probable, possible, or missing were considered as related TEAEs. Events with missing relationship to study treatment were summarized as related. The number and percentage of participants with TEAEs were summarized by MedDRA-coded SOCs and PTs.

[2] = Part 1 (participants with obesity)
[3] = Part 2 (participants with T2DM)

## CCCCCCCCCCCCCCCC(=O)N[C@@H](CCC(=O)NCCCC[C@H](NC(=O)[C@H](CO)NC(=O)[C@@H]1CCCN1C(=O)[C@@H]1CCCN1C(=O)[C@@H]1CCCN1C(=O)[C@H](C)NC(=O)CNC(=O)[C@H](CO)NC(=O)[C@H](CO)NC(=O)[C@@H]1CCCN1C(=O)CNC(=O)CNC(=O)[C@H](C)NC(=O)[C@H](CC(C)C)NC(=O)[C@H](CC(C)C)NC(=O)[C@H](Cc1c[nH]c2ccccc12)NC(=O)[C@H](CC(N)=O)NC(=O)[C@@H](NC(=O)[C@H](Cc1ccccc1)NC(=O)[C@H](CCC(=O)O)NC(=O)C(C)(C)NC(=O)[C@H](C)NC(=O)[C@H](C)NC(=O)[C@H](CCC(N)=O)NC(=O)[C@H](CCCCN)NC(=O)[C@H](CC(=O)O)NC(=O)[C@H](CC(C)C)NC(=O)[C@H](Cc1ccc(O)cc1)NC(=O)[C@@H](NC(=O)[C@H](CO)NC(=O)[C@H](Cc1ccc(O)cc1)NC(=O)[C@H](CC(=O)O)NC(=O)[C@H](CO)NC(=O)[C@@H](NC(=O)[C@H](Cc1ccccc1)NC(=O)[C@@H](NC(=O)CNC(=O)[C@H](CCC(=O)O)NC(=O)CSCC(=O)NCCN1C(=O)CSC1=O)[C@@H](C)O)[C@@H](C)O)[C@@H](C)CC)C(C)C)C(N)=O)C(=O)O [CT-859]
DIO C57BL/6J mice
  adipose tissue weight vs liraglutide (in words): decreases adipose tissue weight more than liraglutide
DIO C57BL/6J mice; 20 and 200 nmol/kg
  body weight vs liraglutide (in words): decreases body weight more than liraglutide at non-GIPR and GIPR engaging doses
DIO C57BL/6J mice; DIO mice, 20 nmol/kg, 19 days
  body weight decreased compared to liraglutide, end of study: 8%
  body weight decreased compared to vehicle, end of study: 20%
  fasting glucose (in words): lowered fasting glucose more than liraglutide
  inguinal adipose weight lower than vehicle: 39%
DIO C57BL/6J mice; DIO mice, 20 nmol/kg, 20 days
  cumulative food intake vs liraglutide (in words): without significant difference in cumulative food intake
  fasting GLUC: 146.5 mg/dL
  weight loss (WL): −16.5%
DIO C57BL/6J mice; DIO mice, 20 nmol/kg, 20 days, fasted
  insulin resistance log (HOMA-IR): 0.74
DIO C57BL/6J mice; DIO mice, 200 nmol/kg, 19 days
  adipose weight (in words): decreased inguinal and epididymal adipose weight more than liraglutide
  body weight decreased compared to liraglutide, end of study: 14%
  body weight decreased compared to vehicle, end of study: 33% and ~35%
  fed glucose levels (in words): decreased fed glucose levels more than the vehicle
DIO C57BL/6J mice; DIO mice, 200 nmol/kg, 20 days
  nonfasted log (HOMA-IR): 1.17
  weight loss (WL): −30.1%
DIO C57BL/6J mice; DIO mice, 200 nmol/kg, after 7 days of dosing
  food consumption lowered compared to liraglutide: 39%
DIO C57BL/6J mice; DIO mice, 200 nmol/kg, day 7
  food intake: 1.2 g
DIO C57BL/6J mice; DIO mice, 200 nmol/kg, day 14
  food intake: 1.7 g
DIO C57BL/6J mice; DIO mice, GIPR-engaging dose
  additional weight loss over liraglutide: 10%

## CCCCCCCCCCCCCCCC(=O)N[C@@H](CCC(=O)NCCCC[C@H](NC(=O)[C@H](CO)NC(=O)[C@@H]1CCCN1C(=O)[C@@H]1CCCN1C(=O)[C@@H]1CCCN1C(=O)[C@H](C)NC(=O)CNC(=O)[C@H](CO)NC(=O)[C@H](CO)NC(=O)[C@@H]1CCCN1C(=O)CNC(=O)CNC(=O)[C@H](C)NC(=O)[C@H](CC(C)C)NC(=O)[C@H](CC(C)C)NC(=O)[C@H](Cc1c[nH]c2ccccc12)NC(=O)[C@H](CC(N)=O)NC(=O)[C@@H](NC(=O)[C@H](Cc1ccccc1)NC(=O)[C@H](CCC(=O)O)NC(=O)C(C)(C)NC(=O)[C@H](C)NC(=O)[C@H](C)NC(=O)[C@H](CCC(N)=O)NC(=O)[C@H](CCCCN)NC(=O)[C@H](CC(=O)O)NC(=O)[C@H](CC(C)C)NC(=O)[C@H](Cc1ccc(O)cc1)NC(=O)[C@@H](NC(=O)[C@H](CO)NC(=O)[C@H](Cc1ccc(O)cc1)NC(=O)[C@H](CC(=O)O)NC(=O)[C@H](CO)NC(=O)[C@@H](NC(=O)[C@H](Cc1ccccc1)NC(=O)[C@@H](NC(=O)CNC(=O)[C@H](CCC(=O)O)NC(=O)CSCC(=O)NCCN1CCCCC1=O)[C@@H](C)O)[C@@H](C)O)[C@@H](C)CC)C(C)C)C(N)=O)C(=O)O [CT-868]
Human GLP-1R
  Emax: 1.5%
[1]; [2]
  Infections and infestations: 0 n (%)
  Urinary tract infection: 0 n (%)
[1]; [3]
  Infections and infestations: 0 n (%)
  Urinary tract infection: 0 n (%)
[1]; in vivo
  AEs of Special Interest (AESI) Total: 10 (50.0) n (%)
  Any AESIs, Grade 2: 1 (8.3%) n (%)
  Arthralgia: 0 n (%)
  At Least 1 Study Drug Related TEAE: 9 (45.0) n (%)
  At Least 1 TEAE: 14 (70.0) n (%)
  Back pain: 0 n (%)
  Coagulation test abnormal: 0 n (%)
  Dermatitis: 0 n (%)
  GI side effects (in words): mostly mild and transient
  Hypoglycemia: 7 (35.0) n (%)
  Injection Site Reaction: 1 (5.0) n (%)
  Investigations: 0 n (%)
  Musculoskeletal and connective tissue disorders: 0 n (%)
  SAEs: 0 n (%)
  Treatment Discontinuation: 1 (5.0)* n (%)
  participants with Grade 1 hypoglycemia events: 7 participants
  tolerability (in words): well tolerated
  vital signs, ECG parameters, laboratory values (in words): no clinically significant CT-868-related changes
